According to PubChem BioAssay (NCI):
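Briefly, cells in 96-well plates were exposed to five compound concentrations for 48 h, and endpoints were estimated by linear interpolation. TGI: concentration producing complete growth inhibition.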

Experiments:
Assay in all cases: DTP human tumour cell line panel, 48 h
HCT-15 colon = system: HCT-15 colon
HCC-2998 colon = system: HCC-2998 colon
MDA-N = system: MDA-N
SK-MEL-28 melanoma = system: SK-MEL-28 melanoma
HCT-116 colon = system: HCT-116 colon
U251 CNS = system: U251 CNS
MCF7 breast = system: MCF7 breast
HS 578T breast = system: HS 578T breast
OVCAR-3 ovarian = system: OVCAR-3 ovarian
HOP-92 NSCLC = system: HOP-92 NSCLC
EKVX NSCLC = system: EKVX NSCLC
MALME-3M melanoma = system: MALME-3M melanoma
SN12C renal = system: SN12C renal
COLO 205 colon = system: COLO 205 colon
MDA-MB-435 = system: MDA-MB-435
M14 melanoma = system: M14 melanoma
SF-268 CNS = system: SF-268 CNS
TK-10 renal = system: TK-10 renal
NCI-H522 lung = system: NCI-H522 lung
NCI/ADR-RES ovarian = system: NCI/ADR-RES ovarian
HT29 colon = system: HT29 colon
T-47D breast = system: T-47D breast
A498 renal = system: A498 renal
DU-145 prostate = system: DU-145 prostate
SK-MEL-5 melanoma = system: SK-MEL-5 melanoma
HL-60(TB) leukemia = system: HL-60(TB) leukemia
SK-MEL-2 melanoma = system: SK-MEL-2 melanoma
IGROV1 ovarian = system: IGROV1 ovarian
NCI-H226 lung = system: NCI-H226 lung
A549 NSCLC = system: A549 NSCLC
SR leukemia = system: SR leukemia
SW-620 colon = system: SW-620 colon
UACC-257 melanoma = system: UACC-257 melanoma
UACC-62 melanoma = system: UACC-62 melanoma
ACHN renal = system: ACHN renal
KM12 colon = system: KM12 colon
SK-OV-3 ovarian = system: SK-OV-3 ovarian
SNB-75 CNS = system: SNB-75 CNS
OVCAR-5 ovarian = system: OVCAR-5 ovarian
CCRF-CEM leukemia = system: CCRF-CEM leukemia
OVCAR-8 ovarian = system: OVCAR-8 ovarian
NCI-H460 lung = system: NCI-H460 lung
786-0 renal = system: 786-0 renal
SF-539 CNS = system: SF-539 CNS
LOX IMVI melanoma = system: LOX IMVI melanoma
MDA-MB-231 breast = system: MDA-MB-231 breast
NCI-H23 lung = system: NCI-H23 lung
RXF 393 renal = system: RXF 393 renal
CAKI-1 renal = system: CAKI-1 renal
HOP-62 NSCLC = system: HOP-62 NSCLC
SNB-19 CNS = system: SNB-19 CNS
PC-3 prostate = system: PC-3 prostate
UO-31 renal = system: UO-31 renal
OVCAR-4 ovarian = system: OVCAR-4 ovarian
BT-549 breast = system: BT-549 breast
K-562 leukemia = system: K-562 leukemia
SF-295 CNS = system: SF-295 CNS
MOLT-4 leukemia = system: MOLT-4 leukemia

Structure (SMILES): COC(=O)C1=C(O)C(C(=O)OC)[C@@]2(O)[C@@H](C(=O)OC)C(c3ccc(OC(=O)/C=C/c4ccccc4)cc3)C[C@@H]1[C@@H]2C(=O)OC (stereo partly specified)
- TGI (HCT-15 colon): 46.7 µM
- TGI (HCC-2998 colon): 27.3 µM
- TGI (MDA-N): 13.1 µM
- TGI (SK-MEL-28 melanoma): > 100 µM
- TGI (HCT-116 colon): 17.8 µM
- TGI (U251 CNS): 28.5 µM
- TGI (MCF7 breast): > 100 µM
- TGI (HS 578T breast): > 100 µM
- TGI (OVCAR-3 ovarian): 94 µM
- TGI (HOP-92 NSCLC): > 100 µM
- TGI (EKVX NSCLC): 37.7 µM
- TGI (MALME-3M melanoma): > 100 µM
- TGI (SN12C renal): 27.3 µM
- TGI (COLO 205 colon): 23.4 µM
- TGI (MDA-MB-435): > 100 µM
- TGI (M14 melanoma): 30.5 µM
- TGI (SF-268 CNS): > 100 µM
- TGI (TK-10 renal): 33.6 µM
- TGI (NCI-H522 lung): > 100 µM
- TGI (NCI/ADR-RES ovarian): > 100 µM
- TGI (HT29 colon): 17 µM
- TGI (T-47D breast): > 100 µM
- TGI (A498 renal): > 100 µM
- TGI (DU-145 prostate): > 100 µM
- TGI (SK-MEL-5 melanoma): 28.8 µM
- TGI (HL-60(TB) leukemia): 32.6 µM
- TGI (SK-MEL-2 melanoma): 21.9 µM
- TGI (IGROV1 ovarian): > 100 µM
- TGI (NCI-H226 lung): 60.1 µM
- TGI (A549 NSCLC): > 100 µM
- TGI (SR leukemia): 22.5 µM
- TGI (SW-620 colon): > 100 µM
- TGI (UACC-257 melanoma): 25.4 µM
- TGI (UACC-62 melanoma): 22.6 µM
- TGI (ACHN renal): > 100 µM
- TGI (KM12 colon): > 100 µM
- TGI (SK-OV-3 ovarian): > 100 µM
- TGI (SNB-75 CNS): > 100 µM
- TGI (OVCAR-5 ovarian): 30.2 µM
- TGI (CCRF-CEM leukemia): > 100 µM
- TGI (OVCAR-8 ovarian): > 100 µM
- TGI (NCI-H460 lung): 7.8 µM
- TGI (786-0 renal): 42.5 µM
- TGI (SF-539 CNS): 8.86 µM
- TGI (LOX IMVI melanoma): 5.75 µM
- TGI (MDA-MB-231 breast): 63.6 µM
- TGI (NCI-H23 lung): > 100 µM
- TGI (RXF 393 renal): 19.1 µM
- TGI (CAKI-1 renal): 73 µM
- TGI (HOP-62 NSCLC): > 100 µM
- TGI (SNB-19 CNS): > 100 µM
- TGI (PC-3 prostate): > 100 µM
- TGI (UO-31 renal): 25.5 µM
- TGI (OVCAR-4 ovarian): > 100 µM
- TGI (BT-549 breast): 60.1 µM
- TGI (K-562 leukemia): > 100 µM
- TGI (SF-295 CNS): > 100 µM

Structure (SMILES): c1csc(-c2cc(-c3ccsc3)c(-c3ccsc3)s2)c1
- TGI (HCT-15 colon): > 100 µM
- TGI (HCC-2998 colon): > 100 µM
- TGI (MDA-N): > 100 µM
- TGI (SK-MEL-28 melanoma): > 100 µM
- TGI (HCT-116 colon): > 100 µM
- TGI (U251 CNS): > 100 µM
- TGI (MCF7 breast): > 100 µM
- TGI (HS 578T breast): > 100 µM
- TGI (OVCAR-3 ovarian): > 100 µM
- TGI (HOP-92 NSCLC): > 100 µM
- TGI (EKVX NSCLC): 90.8 µM
- TGI (MALME-3M melanoma): > 100 µM
- TGI (SN12C renal): > 100 µM
- TGI (COLO 205 colon): > 100 µM
- TGI (MDA-MB-435): > 100 µM
- TGI (M14 melanoma): > 100 µM
- TGI (SF-268 CNS): > 100 µM
- TGI (TK-10 renal): > 100 µM
- TGI (NCI-H522 lung): > 100 µM
- TGI (NCI/ADR-RES ovarian): > 100 µM
- TGI (HT29 colon): > 100 µM
- TGI (T-47D breast): 54.2 µM
- TGI (A498 renal): > 100 µM
- TGI (DU-145 prostate): > 100 µM
- TGI (SK-MEL-5 melanoma): > 100 µM
- TGI (MOLT-4 leukemia): > 100 µM
- TGI (IGROV1 ovarian): > 100 µM
- TGI (A549 NSCLC): > 100 µM
- TGI (SR leukemia): > 100 µM
- TGI (SW-620 colon): > 100 µM
- TGI (UACC-257 melanoma): > 100 µM
- TGI (UACC-62 melanoma): > 100 µM
- TGI (ACHN renal): > 100 µM
- TGI (KM12 colon): > 100 µM
- TGI (SK-OV-3 ovarian): > 100 µM
- TGI (SNB-75 CNS): > 100 µM
- TGI (OVCAR-5 ovarian): > 100 µM
- TGI (CCRF-CEM leukemia): > 100 µM
- TGI (OVCAR-8 ovarian): > 100 µM
- TGI (NCI-H460 lung): > 100 µM
- TGI (786-0 renal): > 100 µM
- TGI (SF-539 CNS): > 100 µM
- TGI (MDA-MB-231 breast): > 100 µM
- TGI (NCI-H23 lung): > 100 µM
- TGI (RXF 393 renal): > 100 µM
- TGI (CAKI-1 renal): > 100 µM
- TGI (HOP-62 NSCLC): > 100 µM
- TGI (SNB-19 CNS): > 100 µM
- TGI (PC-3 prostate): > 100 µM
- TGI (UO-31 renal): > 100 µM
- TGI (OVCAR-4 ovarian): > 100 µM
- TGI (BT-549 breast): > 100 µM
- TGI (K-562 leukemia): > 100 µM
- TGI (SF-295 CNS): > 100 µM

Structure (SMILES): COC(=O)C12C3C4(C(=O)OC)C1C1(C(=O)OC)C2C3(C(=O)OC)C41C(=O)N(C(C)C)C(C)C (stereo unspecified)
- TGI (HCT-15 colon): > 100 µM
- TGI (HCC-2998 colon): > 100 µM
- TGI (MDA-N): > 100 µM
- TGI (SK-MEL-28 melanoma): > 100 µM
- TGI (HCT-116 colon): > 100 µM
- TGI (U251 CNS): > 100 µM
- TGI (MCF7 breast): > 100 µM
- TGI (HS 578T breast): > 100 µM
- TGI (OVCAR-3 ovarian): > 100 µM
- TGI (HOP-92 NSCLC): > 100 µM
- TGI (EKVX NSCLC): > 100 µM
- TGI (SN12C renal): > 100 µM
- TGI (COLO 205 colon): > 100 µM
- TGI (MDA-MB-435): > 100 µM
- TGI (M14 melanoma): > 100 µM
- TGI (SF-268 CNS): > 100 µM
- TGI (TK-10 renal): > 100 µM
- TGI (NCI-H522 lung): > 100 µM
- TGI (NCI/ADR-RES ovarian): > 100 µM
- TGI (HT29 colon): > 100 µM
- TGI (T-47D breast): > 100 µM
- TGI (A498 renal): > 100 µM
- TGI (DU-145 prostate): > 100 µM
- TGI (SK-MEL-5 melanoma): > 100 µM
- TGI (HL-60(TB) leukemia): > 100 µM
- TGI (SK-MEL-2 melanoma): > 100 µM
- TGI (MOLT-4 leukemia): > 100 µM
- TGI (IGROV1 ovarian): > 100 µM
- TGI (A549 NSCLC): > 100 µM
- TGI (SR leukemia): > 100 µM
- TGI (SW-620 colon): > 100 µM
- TGI (UACC-257 melanoma): > 100 µM
- TGI (UACC-62 melanoma): > 100 µM
- TGI (ACHN renal): > 100 µM
- TGI (KM12 colon): > 100 µM
- TGI (SNB-75 CNS): > 100 µM
- TGI (OVCAR-5 ovarian): > 100 µM
- TGI (CCRF-CEM leukemia): > 100 µM
- TGI (OVCAR-8 ovarian): > 100 µM
- TGI (NCI-H460 lung): > 100 µM
- TGI (786-0 renal): > 100 µM
- TGI (SF-539 CNS): > 100 µM
- TGI (LOX IMVI melanoma): > 100 µM
- TGI (MDA-MB-231 breast): > 100 µM
- TGI (NCI-H23 lung): > 100 µM
- TGI (RXF 393 renal): > 100 µM
- TGI (CAKI-1 renal): > 100 µM
- TGI (HOP-62 NSCLC): > 100 µM
- TGI (SNB-19 CNS): > 100 µM
- TGI (PC-3 prostate): > 100 µM
- TGI (UO-31 renal): > 100 µM
- TGI (OVCAR-4 ovarian): > 100 µM
- TGI (BT-549 breast): > 100 µM
- TGI (K-562 leukemia): > 100 µM
- TGI (SF-295 CNS): > 100 µM
